Target: T1, a4b7 integrin interaction with MadCAM-1 (Homo sapiens, UniProt P13612+P26010)
T1 construct: capture of a4b7 integrin expressing cells, RPMI8866; endogenous in cells; host or cells: RPMI8866
T1 sequence (P13612 34-1032): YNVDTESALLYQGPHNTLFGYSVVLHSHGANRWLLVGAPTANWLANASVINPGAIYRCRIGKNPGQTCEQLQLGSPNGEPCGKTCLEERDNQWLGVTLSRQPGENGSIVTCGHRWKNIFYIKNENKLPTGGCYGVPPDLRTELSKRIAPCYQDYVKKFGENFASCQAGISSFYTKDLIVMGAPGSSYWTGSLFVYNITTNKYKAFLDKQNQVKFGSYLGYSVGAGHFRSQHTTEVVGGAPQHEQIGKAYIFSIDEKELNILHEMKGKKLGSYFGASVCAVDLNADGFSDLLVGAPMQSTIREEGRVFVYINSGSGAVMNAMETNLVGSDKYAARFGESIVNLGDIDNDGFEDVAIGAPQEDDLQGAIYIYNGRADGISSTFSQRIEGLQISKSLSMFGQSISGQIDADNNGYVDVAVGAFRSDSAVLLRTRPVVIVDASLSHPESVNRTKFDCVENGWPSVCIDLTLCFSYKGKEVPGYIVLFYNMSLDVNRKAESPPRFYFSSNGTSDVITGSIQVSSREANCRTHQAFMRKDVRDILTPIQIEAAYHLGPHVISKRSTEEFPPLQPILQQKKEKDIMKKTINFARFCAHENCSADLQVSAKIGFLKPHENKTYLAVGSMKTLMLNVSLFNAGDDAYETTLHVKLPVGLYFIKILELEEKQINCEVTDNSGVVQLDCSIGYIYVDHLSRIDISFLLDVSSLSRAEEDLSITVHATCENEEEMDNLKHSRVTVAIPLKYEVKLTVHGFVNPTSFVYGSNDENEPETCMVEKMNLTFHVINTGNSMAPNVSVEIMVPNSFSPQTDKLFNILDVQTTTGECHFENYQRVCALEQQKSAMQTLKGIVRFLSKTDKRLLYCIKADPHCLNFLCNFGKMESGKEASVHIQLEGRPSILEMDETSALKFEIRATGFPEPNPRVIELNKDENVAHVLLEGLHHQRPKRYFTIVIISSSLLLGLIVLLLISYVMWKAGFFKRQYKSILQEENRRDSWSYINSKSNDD
T1 sequence (P26010 20-798): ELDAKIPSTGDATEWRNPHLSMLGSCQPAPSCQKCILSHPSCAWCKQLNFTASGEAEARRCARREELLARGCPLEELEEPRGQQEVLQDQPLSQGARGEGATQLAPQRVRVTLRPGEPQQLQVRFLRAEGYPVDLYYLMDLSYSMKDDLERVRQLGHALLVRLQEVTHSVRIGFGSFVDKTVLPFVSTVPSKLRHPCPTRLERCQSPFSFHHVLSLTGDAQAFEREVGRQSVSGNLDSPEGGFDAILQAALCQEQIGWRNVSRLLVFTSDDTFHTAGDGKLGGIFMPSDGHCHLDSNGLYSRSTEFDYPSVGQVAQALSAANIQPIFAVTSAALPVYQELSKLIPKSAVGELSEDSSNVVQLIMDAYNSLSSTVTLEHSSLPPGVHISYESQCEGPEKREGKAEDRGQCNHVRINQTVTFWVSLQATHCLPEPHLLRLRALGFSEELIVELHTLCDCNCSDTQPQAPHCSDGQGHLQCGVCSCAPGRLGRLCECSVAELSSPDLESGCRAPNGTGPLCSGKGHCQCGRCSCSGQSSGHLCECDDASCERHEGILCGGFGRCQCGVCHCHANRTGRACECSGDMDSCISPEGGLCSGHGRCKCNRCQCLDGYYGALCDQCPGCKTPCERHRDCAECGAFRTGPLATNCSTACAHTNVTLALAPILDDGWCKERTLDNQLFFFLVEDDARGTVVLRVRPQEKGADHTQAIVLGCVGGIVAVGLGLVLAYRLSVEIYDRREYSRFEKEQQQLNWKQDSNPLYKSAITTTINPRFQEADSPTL
Assay: a4b7 Cell Capture Assay (RPMI8866 cells on MAdCAM-1 Fc coated plates)
Type: cell-based
Conditions: 50% human serum, 1 mM MgCl2, 1 hour incubation, CellTiter-Glo luminescence, read-out: a4B7 cell capture assay RMPI8866-MadCAM EC50
Procedure, shortened: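 RPMI8866 cells (1.0×10^6 cells/mL) in 1 mM MgCl2, 25 mM HEPES, 50% human serum were added to plates coated with human MAdCAM-1–IgG1 Fc (1.0 μg/mL) and exposed to compound (9-point, 0.08–1000 nM, 0.1% DMSO) for 1 h at 37 °C. Bound cells were read by CellTiter-Glo luminescence. IC50 came from 4-parameter fit of normalized % inhibition.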

Row | SMILES | EC50 [µM]
1 | Cc1cc(C2CC2)cc2c1-c1cc(c(F)c(C(F)(F)F)c1)[C@H](CC(=O)O)NC(=O)[C@@H](n1cc(CCN3CC(F)C3)c(C(F)(F)F)cc1=O)c1cccc(c1)O2 (relative stereo) [Example 10, [(14R*,17S)-5-cyclopropyl-19-fluoro-14-{5-[2-(3-fluoroazetidin-1-yl)ethyl]-2-oxo-4-(trifluoromethyl)pyridin-1-yl}-3-methyl-15-oxo-20-(trifluoromethyl)-8-oxa-16-azatetracyclo[16.3.1.1^{9,13}.0^{2,7}]tricosa-1(21),2(7),3,5,9,11,13(23),18(22),19-nonaen-17-yl]acetic acid] | 0.36
2 | Cc1cc(Cl)cc2c1-c1cc(c(F)c(C(F)(F)F)c1)[C@H](CC(=O)O)NC(=O)[C@@H](n1cc(CCN3CC(F)C3)c(C(F)(F)F)cc1=O)c1cccc(c1)O2 (single isomer, unassigned) [Example 11] | 0.34
3 | Cc1cccc2c1-c1cc(c(F)c(C(F)(F)F)c1)[C@H](CC(=O)O)NC(=O)[C@@H](n1cc(CCN3CC(F)C3)c(C(F)(F)F)cc1=O)c1cc(Cl)cc(c1)O2 (relative stereo) [Example 15, [(14R*,17S)-11-chloro-19-fluoro-14-{5-[2-(3-fluoroazetidin-1-yl)ethyl]-2-oxo-4-(trifluoromethyl)pyridin-1-yl}-3-methyl-15-oxo-20-(trifluoromethyl)-8-oxa-16-azatetracyclo[16.3.1.1^{9,13}.0^{2,7}]tricosa-1(22),2(7),3,5,9,11,13(23),18,20-nonaen-17-yl]acetic acid] | 0.028
4 | Cc1cc2cc(c1F)[C@H](CC(=O)O)NC(=O)[C@@H](n1cc(CCN3CC(F)C3)c(C(F)(F)F)cc1=O)c1cccc(c1)Oc1cccc(C)c1-2 (relative stereo) [Example 1, rel-2-((5S,8S)-1^4-fluoro-5-(5-(2-(3-fluoroazetidin-1-yl)ethyl)-2-oxo-4-(trifluoromethyl)pyridin-1(2H)-yl)-1^5,2^6-dimethyl-6-oxo-3-oxa-7-aza-1,4(1,3),2(1,2)-tribenzenacyclooctaphane-8-yl)acetic acid] | 0.059

Now those with a lower EC50, led by results:

Row | EC50 [µM] | SMILES
5 | 0.0092 | Cc1cc(C)c2c(c1)Oc1cccc(c1)[C@H](n1cc(CCCN(C)C)c(C(F)(F)F)cc1=O)C(=O)N[C@@H](CC(=O)O)c1cn-2nc1C(F)(F)F (relative stereo) [Example 18, [(13S,16R*)-16-{5-[3-(dimethylamino)propyl]-2-oxo-4-(trifluoromethyl)pyridin-1-yl}-5,7-dimethyl-15-oxo-11-(trifluoromethyl)-2-oxa-9,10,14-triazatetracyclo[15.3.1.1^{9,12}.0^{3,8}]docosa-1(20),3(8),4,6,10,12(22),17(21),18-octaen-13-yl]acetic acid]
6 | 0.012 | Cc1cc2cc(c1F)[C@H](CC(=O)O)NC(=O)[C@@H](n1cc(CCN3CC(F)C3)c(C(F)(F)F)cc1=O)c1cc(Cl)cc(c1)Oc1cccc(C)c1-2 (single isomer, unassigned) [Example 3]
7 | 0.0011 | Cc1cc2cc(c1F)[C@H](CC(=O)O)NC(=O)[C@@H](n1cc(CCN3CC(F)C3)c(C(F)(F)F)cc1=O)c1cc(ccc1F)Oc1cccc(C)c1-2 (relative stereo) [Example 7, [(14R*,17S)-12,19-difluoro-14-{5-[2-(3-fluoroazetidin-1-yl)ethyl]-2-oxo-4-(trifluoromethyl)pyridin-1-yl}-3,20-dimethyl-15-oxo-8-oxa-16-azatetracyclo[16.3.1.1^{9,13}.0^{2,7}]tricosa-1(21),2(7),3,5,9(23),10,12,18(22),19-nonaen-17-yl]acetic acid]
